Measurements reported in PMC2704987 (Pharmacotherapy, 2009).
Read-outs that look alike come from different tables or passages of the source.

Tests used:
[1] = oral azithromycin, 12 CF patients; cited from earlier work
[2] = type: in vivo, human; settings: for AUC / Cmax: human, plasma, po, 120 mg/m^2/day, oral erlotinib 120 mg/m^2/day (150 mg)
[3] = children, 120 mg/m^2/day, range in parentheses; cited from earlier work
[4] = child with glioblastoma, cited from earlier work
[5] = adults, 150 mg/day; cited from earlier work
[6] = adults, 150 mg/day; cited from earlier work; remark: listed apart in the source
[7] = cited from earlier work
[8] = cited from earlier work; remark: listed apart in the source
[9] = cited from earlier work; remark: listed apart in the source
[10] = orally administered ganciclovir; cited from earlier work
[11] = cystic fibrosis patient, oral erlotinib 150 mg daily
[12] = adult patients with advanced malignant disease

SMILES: CC[C@H]1OC(=O)[C@H](C)[C@@H](O[C@H]2C[C@@](C)(OC)[C@@H](O)[C@H](C)O2)[C@H](C)[C@@H](O[C@@H]2O[C@H](C)C[C@H](N(C)C)[C@H]2O)[C@](C)(O)C[C@@H](C)CN(C)[C@H](C)[C@@H](O)[C@]1(C)O [azithromycin]
- Cmax, Tmax, and AUC values, CF patients versus healthy volunteers [1]: similar
- absorption rate constant (ka) and absolute bioavailability (F), CF patients versus healthy volunteers [1]: no statistically significant difference

SMILES: C#Cc1cccc(Nc2ncnc3cc(OCCOC)c(OCCOC)cc23)c1 [erlotinib]
- ka (absorption rate constant) ([2]; cystic fibrosis patient, oral erlotinib 120 mg/m^2/day): 1.51 h^−
- VdERL (apparent volume of distribution of erlotinib) ([2]; cystic fibrosis patient, oral erlotinib 120 mg/m^2/day, with pancrelipase): 60.4 L/m^2
- Apparent clearance of erlotinib [2, 11]: 4.9 L/h/m^2
- Apparent volume of distribution of erlotinib [2, 11]: 60.4 L
- rate of erlotinib absorption (ka) [2, 11]: 1.51 h⁻¹
- absorption of orally administered erlotinib in a cystic fibrosis patient ([2]; given concomitantly with pancreatic enzymes replacement therapy): not affected
- AUC ([2]; Day 1 AUCERL, cystic fibrosis patient, day 1, plasma): 18800 ng·h/mL
- Cmax ([2]; Day 1 Cmax, cystic fibrosis patient, day 1, plasma): 1440 ng/mL
- AUC ([2]; Day 8 AUCERL, cystic fibrosis patient, day 8 (steady state)): 25700 ng·h/mL
- Cmax ([2]; Day 8 Cmax, cystic fibrosis patient, day 8, plasma): 1460 ng/mL
- Day 1 AUCERL [3]: 22.6 (18.2–27) mcg*h/mL
- Day 1 Cmax [3]: 1260 (490–2020) ng/mL
- Day 8 AUCERL [3]: 29.5 (12–47) mcg*h/mL
- Day 1 AUCERL ([4]; 70 mg/m^2/day): 19400 ng·h/mL
- Day 8 AUCERL ([4]; 70 mg/m^2/day): 32600 ng·h/mL
- ka ([4]; 70 mg/m^2/day): 0.59 h^−
- penetration of erlotinib into the CSF ([4]; oral erlotinib): modest
- Day 1 AUCERL [5]: 16540 ± 11020 ng·h/mL
- Day 1 AUCERL [6]: 19400 ± 10000 ng·h/mL
- half-life [7, 12]: 10 to 36 h
- time to maximum concentration (Cmax) after dose administration [7, 12]: 2 to 4 h
- bioavailability after oral administration with food ([7]; adults, administration with food): ≥ 100%
- elimination in feces ([7]; adults, biliary excretion): 63%
- bioavailability after oral administration ([7]; adults, without food): approximately 60%
- elimination in urine ([7]; adults): 13%
- bound to plasma proteins [8]: 95%
- solubility in water and methanol [9]: poor

SMILES: Nc1nc(O)c2ncn(COC(CO)CO)c2n1 [ganciclovir]
- pharmacokinetic parameters in post-lung transplant patients with CF [10]: predictable
